Laboratory results published in patent publication US12606533B2, “3-phenylpropylamine derivative” (DAIICHI SANKYO COMPANY, LIMITED, priority 2023, dated 2026).
Read-outs that look alike come from different tables or passages of the source.

Assays:
SF-1 = target: T1, SF-1 (Homo sapiens, UniProt Q13285); assay: SF1 degradation induction in NCI-H295R SF-1-HiBiT cells (HiBiT DC50); type: cell-based; details: 24 hr, concentration that induces 50% degradation of SF-1
T1 construct: NCI-H295R SF-1-HiBiT cells with HiBiT tag knocked in at the endogenous SF1 locus; host or cells: NCI-H295R SF-1-HiBiT (knock-in at endogenous locus)
Method in brief: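 NCI-H295R cells carrying HiBiT-tagged SF-1, plated and grown 24 hr, then exposed to serially diluted compounds for 24 hr at 37° C. Remaining SF-1 read by lytic HiBiT luminescence; degradation rate from treated vs compound-free signal, DC50 as concentration giving 50% degradation.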

NCI-H295R cells = assay: Proliferation inhibitory action on NCI-H295R (CellTiter-Glo, 7 days); type: cell-based, human
Method in brief: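 Compounds serially diluted in DMSO; cells seeded at 2×10^3 cells/well and cultured 7 days at 37° C, 5% CO2. CellTiter-Glo 2.0 luminescence read at day 0 and day 7; proliferation rate derived from compound-addition-day signal, untreated day-7 signal and treated day-7 signal.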

Row | Compound | DC50 (SF-1) [nM] | GI50 (NCI-H295R cells; Homo sapiens, NCI-H295R, 168 h) [nM] | GI50 (NCI-H295R cells) [nM]
1 | COc1ccc([C@]2(CCN(Cc3ccc(OC4CCN(CC(=O)Nc5cccc6c5n(C)c(=O)n6C5CCC(=O)NC5=O)CC4)cc3)CC(C)(C)C(F)(F)F)CCOC(C)(C)C2)cc1 (stereo partly drawn) [Example Z8, N-[1-(2,6-Dioxopiperidin-3-yl)-3-methyl-2-oxo-2,3-dihydro-1H-benzimidazol-4-yl]-2-[4-(4-{[{2-[(4R)-4-(4-methoxyphenyl)-2,2-dimethyltetrahydro-2H-pyran-4-yl]ethyl)(3,3,3-trifluoro-2,2-dimethylpropyl)amino]methyl}phenoxy)piperidin-1-yl]acetamide] | 10 | 43 | –
2 | COc1ccc([C@]2(CCN(Cc3ccc(C4=CCC(CN5CCN(C(=O)c6ccc7c(c6)CN(C6CCC(=O)NC6=O)C7=O)CC5)CC4)cc3)CC(C)(C)C(F)(F)F)CCOC(C)(C)C2)cc1 (stereo partly drawn) [Example AG7, 3-[5-({4-[(4′-{[{2-[(4R)-4-(4-Methoxyphenyl)-2,2-dimethyltetrahydro-2H-pyran-4-yl]ethyl}(3,3,3-trifluoro-2,2-dimethylpropyl)amino]methyl}-2,3,4,5-tetrahydro[biphenyl]-4-yl)methyl]piperazin-1-yl}carbonyl)-1-oxo-1,3-dihydro-2H-isoindol-2-yl]piperidine-2,6-dione] | 8.7 | 147 | –
3 | COc1ccc([C@]2(CCN(Cc3ccc(C4=CC[C@H](CN5CCN(C(=O)c6ccc7c8c6OCCn8c(=O)n7C6CCC(=O)NC6=O)CC5)CC4)cc3)CC(C)(C)C(F)(F)F)CCOC(C)(C)C2)cc1 (stereo partly drawn) [BU6, 3-{7-[(4-{[(4R)-4′-{[{2-[(4R)-4-(4-Methoxyphenyl)-2,2-dimethyltetrahydro-2H-pyran-4-yl]ethyl}(3,3,3-trifluoro-2,2-dimethylpropyl)amino]methyl}-2,3,4,5-tetrahydro[biphenyl]-4-yl]methyl}piperazin-1-yl)carbonyl]-2-oxo-4,5-dihydroimidazo[1,5,4-de][1,4]benzoxazin-1(2H)-yl}piperidine-2,6-dione] | 18 | 64 | –
4 | COc1ccc([C@]2(CCN(Cc3ccc(-c4cccc(CC(=O)NCCNc5ccc6c(c5)n(C)c(=O)n6C5CCC(=O)NC5=O)c4)cc3)CC(C)(C)C(F)(F)F)CCOC(C)(C)C2)cc1 (stereo partly drawn) [Example AA4, N-(2-{[1-(2,6-Dioxopiperidin-3-yl)-3-methyl-2-oxo-2,3-dihydro-1H-benzimidazol-5-yl]amino}ethyl)-2-(4′-{[{2-[(4R)-4-(4-methoxyphenyl)-2,2-dimethyltetrahydro-2H-pyran-4-yl]ethyl)(3,3,3-trifluoro-2,2-dimethylpropyl)amino]methyl}[biphenyl]-3-yl)acetamide] | 12 | 488 | –
5 | COc1ccc([C@]2(CCN(Cc3ccc(C4=CC[C@H](C(=O)N5CCC(Nc6ccc7c8c6OCCn8c(=O)n7C6CCC(=O)NC6=O)CC5)CC4)c(F)c3)CC(C)(C)C(F)(F)F)CCOC(C)(C)C2)cc1 (stereo partly drawn) [BM10, 3-{7-[(1-{[(4R)-2′-Fluoro-4′-{[{2-[(4R)-4-(4-methoxyphenyl)-2,2-dimethyltetrahydro-2H-pyran-4-yl]ethyl)(3,3,3-trifluoro-2,2-dimethylpropyl)amino]methyl}-2,3,4,5-tetrahydro[biphenyl]-4-yl]carbonyl}piperidin-4-yl)amino]-2-oxo-4,5-dihydroimidazo[1,5,4-de][1,4]benzoxazin-1(2H)-yl}piperidine-2,6-dione] | 2.2 | 22 | –
6 | COc1ccc([C@]2(CCN(Cc3ccc(OC4CC5(CCN(CC(=O)Nc6ccc7c(c6)n(C)c(=O)n7C6CCC(=O)NC6=O)CC5)C4)cc3)CC(C)(C)C(F)(F)F)CCOC(C)(C)C2)cc1 (stereo partly drawn) [Example AE1, N-[1-(2,6-Dioxopiperidin-3-yl)-3-methyl-2-oxo-2,3-dihydro-1H-benzimidazol-5-yl]-2-[2-(4-{[{2-[(4R)-4-(4-methoxyphenyl)-2,2-dimethyltetrahydro-2H-pyran-4-yl]ethyl}(3,3,3-trifluoro-2,2-dimethylpropyl)amino]methyl}phenoxy)-7-azaspiro[3.5]nonan-7-yl]acetamide] | 8.5 | 40 | –
7 | COc1ccc([C@]2(CCN(Cc3ccc(C4=CCC(C(=O)N5CCC(N(C)c6ccc7c8c6CCCn8c(=O)n7C6CCC(=O)NC6=O)CC5)CC4)c(F)c3)CC(C)(C)C(F)(F)F)CCOC(C)(C)C2)cc1 (stereo partly drawn) [BH5, 3-{7-[{1-[(2′-Fluoro-4′-{[{2-[(4R)-4-(4-methoxyphenyl)-2,2-dimethyltetrahydro-2H-pyran-4-yl]ethyl}(3,3,3-trifluoro-2,2-dimethylpropyl)amino]methyl}-2,3,4,5-tetrahydro[biphenyl]-4-yl)carbonyl]piperidin-4-yl}(methyl)amino]-2-oxo-5,6-dihydro-4H-imidazo[4,5,1-ij]quinolin-1(2H)-yl}piperidine-2,6-dione] | 7.7 | 79 | –
8 | COc1ccc([C@]2(CCN(Cc3ccc(C4=CC[C@H](C(=O)N5CCC(Nc6ccc7c(c6F)n(C)c(=O)n7C6CCC(=O)NC6=O)CC5)CC4)c(F)c3)CC(C)(C)C(F)(F)F)CCOC(C)(C)C2)cc1 (stereo partly drawn) [BX6, 3-{4-Fluoro-5-[(1-{[(4R)-2′-fluoro-4′-{[{2-[(4R)-4-(4-methoxyphenyl)-2,2-dimethyltetrahydro-2H-pyran-4-yl]ethyl}(3,3,3-trifluoro-2,2-dimethylpropyl)amino]methyl}-2,3,4,5-tetrahydro[biphenyl]-4-yl]carbonyl}piperidin-4-yl)amino]-3-methyl-2-oxo-2,3-dihydro-1H-benzimidazol-1-yl}piperidine-2,6-dione] | 7.1 | 52 | –
9 | COc1ccc([C@]2(CCN(Cc3ccc(C4=CC[C@H](C(=O)N5C6COCC5CC(Nc5ccc7c8c5CCCn8c(=O)n7C5CCC(=O)NC5=O)C6)CC4)c(F)c3)CC(C)(C)C(F)(F)F)CCOC(C)(C)C2)cc1 (stereo partly drawn) [CC3, 3-[7-{[(7-Exo)-9-{[(4R)-2′-fluoro-4′-{[{2-[(4R)-4-(4-methoxyphenyl)-2,2-dimethyltetrahydro-2H-pyran-4-yl]ethyl)(3,3,3-trifluoro-2,2-dimethylpropyl)amino]methyl}-2,3,4,5-tetrahydro[biphenyl]-4-yl]carbonyl}-3-oxa-9-azabicyclo[3.3.1]nonan-7-yl]amino}-2-oxo-5,6-dihydro-4H-imidazo[4,5,1-ij]quinolin-1(2H)-yl]piperidine-2,6-dione] | 4.9 | 36 | –
10 | COc1ccc([C@]2(CCN(Cc3ccc(C4=CC[C@H](C(=O)N5CCN(Cc6cc(F)c7c(c6)n(C)c(=O)n7C6CCC(=O)NC6=O)CC5)CC4)cc3)CC(C)(C)C(F)(F)F)CCOC(C)(C)C2)cc1 (stereo partly drawn) [BP6, 3-{7-Fluoro-5-[(4-{[(4R)-4′-{[{2-[(4R)-4-(4-methoxyphenyl)-2,2-dimethyltetrahydro-2H-pyran-4-yl]ethyl}(3,3,3-trifluoro-2,2-dimethylpropyl)amino]methyl}-2,3,4,5-tetrahydro[biphenyl]-4-yl]carbonyl}piperazin-1-yl)methyl]-3-methyl-2-oxo-2,3-dihydro-1H-benzimidazol-1-yl}piperidine-2,6-dione] | 12 | 71 | –
11 | COc1ccc([C@]2(CCN(Cc3ccc(OC4CC5(CCN(CC(=O)N6Cc7ccc8c(c7C6)n(C)c(=O)n8C6CCC(=O)NC6=O)CC5)C4)cc3)CC(C)(C)C(F)(F)F)CCOC(C)(C)C2)cc1 (stereo partly drawn) [Example AL4, 3-[7-{[2-(4-{[{2-[(4R)-4-(4-Methoxyphenyl)-2,2-dimethyltetrahydro-2H-pyran-4-yl]ethyl}(3,3,3-trifluoro-2,2-dimethylpropyl)amino]methyl}phenoxy)-7-azaspiro[3.5]nonan-7-yl]acetyl}-1-methyl-2-oxo-1,6,7,8-tetrahydroimidazo[4,5-e]isoindole-3(2H)-yl]piperidine-2,6-dione] | 4.5 | 83 | –
12 | COc1ccc([C@]2(CCN(Cc3ccc(C4=CC[C@H](C(=O)N5CCC(Nc6ccc7c8c6CCCn8c(=O)n7C6CCC(=O)NC6=O)CC5)CC4)c(F)c3)CC(C)(C)C(F)(F)F)CCOC(C)(C)C2)cc1 (single isomer, unassigned) [CG1, (3S) or (3R)-{7-[(1-{[(4R)-2′-Fluoro-4′-{[{2-[(4R)-4-(4-methoxyphenyl)-2,2-dimethyltetrahydro-2H-pyran-4-yl]ethyl}(3,3,3-trifluoro-2,2-dimethylpropyl)amino]methyl}-2,3,4,5-tetrahydro[biphenyl]-4-yl]carbonyl}piperidin-4-yl)amino]-2-oxo-5,6-dihydro-4H-imidazo[4,5,1-ij]quinolin-1(2H)-yl}piperidine-2,6-dione] | 1.8 | – | 18
13 | COc1ccc(C2(CCN(Cc3ccc(OC4CCN(CC(=O)Nc5cccc6c5n(C)c(=O)n6C5CCC(=O)NC5=O)CC4)cc3)CC(C)(C)C(F)(F)F)CCOCC2)cc1 (stereo not shown) [Example AC6, N-[1-(2,6-Dioxopiperidin-3-yl)-3-methyl-2-oxo-2,3-dihydro-1H-benzimidazol-4-yl]-2-[4-(4-{[{2-[4-(4-methoxyphenyl)tetrahydro-2H-pyran-4-yl]ethyl}(3,3,3-trifluoro-2,2-dimethylpropyl)amino]methyl}phenoxy)piperidin-1-yl]acetamide] | 26 | 73 | –
14 | COc1ccc([C@]2(CCN(Cc3ccc(C4=CCC(C(=O)N5CCN(Cc6ccc7c(c6)n(C)c(=O)n7C6CCC(=O)NC6=O)CC5)CC4)c(C)c3)CC(C)(C)C(F)(F)F)CCOC(C)(C)C2)cc1 (stereo partly drawn) [AS7, 3-[5-({4-[(4′-{[{2-[(4R)-4-(4-Methoxyphenyl)-2,2-dimethyltetrahydro-2H-pyran-4-yl]ethyl)(3,3,3-trifluoro-2,2-dimethylpropyl)amino]methyl}-2′-methyl-2,3,4,5-tetrahydro[biphenyl]-4-yl)carbonyl]piperazin-1-yl}methyl)-3-methyl-2-oxo-2,3-dihydro-1H-benzimidazol-1-yl]piperidine-2,6-dione] | 4.1 | 56 | –
